Assay results taken from US20240368120A1 (Terns Pharmaceuticals, Inc., priority 2023, published 2024).

Biological target: T1, human GLP-1R receptor (Homo sapiens, UniProt P43220)
T1 construct: expressed in transfected cells
Assay: GLP-1R low expression cell assay (cAMP TR-FRET, CHO-K1_hGLP-1Rlow_clone10 cells)
Format: cell-based
Conditions: for EC50: cAMP TR-FRET, 30 min at 25° C.
Outline: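 CHO-K1 cells stably expressing low surface human GLP-1R (clone10), 1,000 cells/well, exposed to 10-point 3-fold compound dilutions for 30 min at 25 °C. cAMP measured by TR-FRET (Eu-cAMP tracer/ULight-anti-cAMP, 15 min). EC50 from Hill fit of duplicate percent activation relative to a parallel GLP-1 control agonist.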

[1] = maximum activation relative to control GLP-1 peptide agonist

T1 sequence (P43220 24-463): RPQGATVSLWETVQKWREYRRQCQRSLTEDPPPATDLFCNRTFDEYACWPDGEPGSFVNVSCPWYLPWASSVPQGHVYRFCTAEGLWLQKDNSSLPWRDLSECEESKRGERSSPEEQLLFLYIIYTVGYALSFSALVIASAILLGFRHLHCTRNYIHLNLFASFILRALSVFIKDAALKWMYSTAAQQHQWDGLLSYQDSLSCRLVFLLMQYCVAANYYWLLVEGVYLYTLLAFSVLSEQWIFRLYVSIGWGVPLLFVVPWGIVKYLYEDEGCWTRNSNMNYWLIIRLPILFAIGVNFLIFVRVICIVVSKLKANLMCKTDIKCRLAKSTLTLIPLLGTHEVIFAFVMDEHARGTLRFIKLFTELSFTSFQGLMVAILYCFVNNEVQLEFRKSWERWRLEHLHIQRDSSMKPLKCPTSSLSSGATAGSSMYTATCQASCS

| SMILES | EC50 | Emax [1] | GLP-1R Low Expression Cell Assay Emax (%) [1] |
| --- | --- | --- | --- |
| Cn1c(CN2CCC(c3cccc(OCc4ccc(Cl)cc4F)n3)CC2)nc2c(OC(F)F)cc(C(=O)O)nc21 [Compound 328, 2-((4-(6-((4-Chloro-2-fluorobenzyl)oxy)pyridin-2-yl)piperidin-1-yl)methyl)-7-(difluoromethoxy)-3-methyl-3H-imidazo[4,5-b]pyridine-5-carboxylic acid] | 10 to 100 nM | > 85% |  |
| COc1cc(C(=O)O)cc2c1nc([C@H](C)N1CCC(c3cccc(OCc4ccc(C#N)cc4F)n3)CC1)n2C [Compound 102, (S)-2-(1-(4-(6-((4-Cyano-2-fluorobenzyl)oxy)pyridin-2-yl)piperidin-1-yl)ethyl)-4-methoxy-1-methyl-1H-benzo[d]imidazole-6-carboxylic acid] | 10 to 100 nM | > 85% |  |
| COc1cc(C(=O)O)cc2c1nc(CN1CCC(c3cccc4c3O[C@H](c3ccc(Cl)cc3F)CO4)CC1)n2C [Compound 267, (R)-2-((4-(3-(4-Chloro-2-fluorophenyl)-2,3-dihydrobenzo[b][1,4]dioxin-5-yl)piperidin-1-yl)methyl)-4-methoxy-1-methyl-1H-benzo[d]imidazole-6-carboxylic acid] | 100 to 1000 nM | > 85% |  |
| [2H]C([2H])(Oc1cccc(C2CCN(Cc3nc4c(OC(F)F)cc(C(=O)O)cc4n3C)CC2)n1)c1ccc(Cl)cc1F [Compound 195, 2-((4-(6-((4-Chloro-2-fluorophenyl)methoxy-d2)pyridin-2-yl)piperidin-1-yl)methyl)-4-(difluoromethoxy)-1-methyl-1H-benzo[d]imidazole-6-carboxylic acid] | 10 to 100 nM | > 85% |  |
| Cn1c(CN2CCC(c3cccc4c3O[C@H](c3ccc(Cl)cc3F)CC4)CC2)nc2c(OC(F)F)cc(C(=O)O)cc21 [Compound 368, (S)-2-((4-(2-(4-Chloro-2-fluorophenyl)chroman-8-yl)piperidin-1-yl)methyl)-4-(difluoromethoxy)-1-methyl-1H-benzo[d]imidazole-6-carboxylic acid] | > 1000 nM | 25 to 50% |  |
| CC(F)Oc1cc(C(=O)O)cc2c1nc(CN1CCC(c3cccc(OCc4ccc(Cl)cc4F)n3)CC1)n2C (stereo not drawn) [Compound 359, 2-((4-(6-((4-Chloro-2-fluorobenzyl)oxy)pyridin-2-yl)piperidin-1-yl)methyl)-4-(1-fluoroethoxy)-1-methyl-1H-benzo[d]imidazole-6-carboxylic acid] | < 10 nM | > 85% |  |
| O=C(O)c1cc(OC(F)F)c2c(c1)nc(CN1CCC(c3cccc(OCc4ccc(Cl)cc4F)n3)CC1)n2CF [Compound 206, 2-((4-(6-((4-Chloro-2-fluorobenzyl)oxy)pyridin-2-yl)piperidin-1-yl)methyl)-7-(difluoromethoxy)-1-(fluoromethyl)-1H-benzo[d]imidazole-5-carboxylic acid] | > 1000 nM | < 25% |  |
| CC(Oc1ccccc1C1CCN(Cc2nc3c(OC(F)F)cc(C(=O)O)cc3n2C)CC1)c1ccc(C#N)cc1F (single isomer, unassigned) [Compound 174] | > 1000 nM | < 25% |  |
| COc1cc(C(=O)O)cc2c1nc([C@@H](C)N1CCC(c3cccc4c3O[C@@](C)(c3ccc(Cl)cn3)O4)CC1)n2C [Compound 97, 2-((R)-1-(4-((S)-2-(5-chloropyridin-2-yl)-2-methylbenzo[d][1,3]dioxol-4-yl)piperidin-1-yl)ethyl)-4-methoxy-1-methyl-1H-benzo[d]imidazole-6-carboxylic acid] | > 1000 nM | > 85% |  |
| Cn1c(N(C)[C@H]2CC[C@@H](c3cccc(OCc4ccc(C#N)cc4F)n3)CC2)nc2c(OC(F)F)cc(C(=O)O)cc21 [Compound 142, 2-(((1s,4s)-4-(6-((4-Cyano-2-fluorobenzyl)oxy)pyridin-2-yl)cyclohexyl)(methyl)amino)-4-(difluoromethoxy)-1-methyl-1H-benzo[d]imidazole-6-carboxylic acid] | > 1000 nM | > 85% |  |
| Cn1c(CN2CCC(c3cccc4c3O[C@@](C)(c3ccc(Cl)cn3)O4)CC2)nc2c(C(C)(F)F)cc(C(=O)O)cc21 [Compound 87, (S)-2-((4-(2-(5-Chloropyridin-2-yl)-2-methylbenzo[d][1,3]dioxol-4-yl)piperidin-1-yl)methyl)-4-(1,1-difluoroethyl)-1-methyl-1H-benzo[d]imidazole-6-carboxylic acid] | 100 to 1000 nM | > 85% |  |
| COc1cc(C(=O)O)cc2c1nc([C@H](C)N1CCC(c3cccc(OCc4ccc(C#N)cc4F)n3)CC1)n2C[C@@H]1CCO1 [Compound 95, 2-((S)-1-(4-(6-((4-Cyano-2-fluorobenzyl)oxy)pyridin-2-yl)piperidin-1-yl)ethyl)-4-methoxy-1-(((S)-oxetan-2-yl)methyl)-1H-benzo[d]imidazole-6-carboxylic acid] | < 10 nM | > 85% |  |
| CCOc1cc(-c2nc(=O)o[nH]2)cc2c1nc(CN1CCC(c3cccc(OCc4ccc(C#N)cc4F)n3)CC1)n2C [Compound 260, 4-(((6-(1-((4-ethoxy-1-methyl-6-(5-oxo-2,5-dihydro-1,2,4-oxadiazol-3-yl)-1H-benzo[d]imidazol-2-yl)methyl)piperidin-4-yl)pyridin-2-yl)oxy)methyl)-3-fluorobenzonitrile] | 10 to 100 nM | > 85% |  |
| Cn1c(CN2CCC(c3cccc(OCc4ccc(Cl)cc4F)n3)CC2)nc2c(OCC3(F)CC3)cc(C(=O)O)cc21 [Compound 188, 2-((4-(6-((4-Chloro-2-fluorobenzyl)oxy)pyridin-2-yl)piperidin-1-yl)methyl)-4-((1-fluorocyclopropyl)methoxy)-1-methyl-1H-benzo[d]imidazole-6-carboxylic acid] | 10 to 100 nM | > 85% |  |
| Cn1c(CN2CCC(c3cccc(OCc4ccc(Cl)cc4F)n3)CC2)nc2c(OCC(F)F)cc(C(=O)O)cc21 [Compound 169, 2-((4-(6-((4-Chloro-2-fluorobenzyl)oxy)pyridin-2-yl)piperidin-1-yl)methyl)-4-(2,2-difluoroethoxy)-1-methyl-1H-benzo[d]imidazole-6-carboxylic acid] | < 10 nM | > 85% |  |
| Cn1c(CN2CCC(c3cccc(OCc4ccc(F)cc4F)n3)CC2)nc2c(OC(F)F)cc(C(=O)O)cc21 [Compound 250, 2-((4-(6-((2,4-Difluorobenzyl)oxy)pyridin-2-yl)piperidin-1-yl)methyl)-4-(difluoromethoxy)-1-methyl-1H-benzo[d]imidazole-6-carboxylic acid] | 10 to 100 nM |  |  |
| COc1cc(C(=O)O)cc2c1nc(CN1CCC(c3cccc4c3OC[C@@H](c3ccc(C#N)cc3F)O4)CC1)n2C [Compound 278, (R)-2-((4-(2-(4-Cyano-2-fluorophenyl)-2,3-dihydrobenzo[b][1,4]dioxin-5-yl)piperidin-1-yl)methyl)-4-methoxy-1-methyl-1H-benzo[d]imidazole-6-carboxylic acid] | 100 to 1000 nM | > 85% |  |
| Cn1c(CN2CCC(c3cccc(OCc4ccc(Cl)cc4F)n3)CC2)nc2c(OC(F)F)cc(-c3noc(=O)[nH]3)cc21 [Compound 236, 3-(2-((4-(6-((4-Chloro-2-fluorobenzyl)oxy)pyridin-2-yl)piperidin-1-yl)methyl)-4-(difluoromethoxy)-1-methyl-1H-benzo[d]imidazol-6-yl)-1,2,4-oxadiazol-5 (4H)-one] | 100 to 1000 nM | 50 to 85% |  |
| O=C(O)c1cc(OCF)c2nc(CN3CCC(c4cccc(OCc5ccc(Cl)cc5F)n4)CC3)n(CF)c2c1 [Compound 346, 2-((4-(6-((4-Chloro-2-fluorobenzyl)oxy)pyridin-2-yl)piperidin-1-yl)methyl)-4-(fluoromethoxy)-1-(fluoromethyl)-1H-benzo[d]imidazole-6-carboxylic acid] | 10 to 100 nM | > 85% |  |
| CC(CF)Oc1cc(C(=O)O)cc2c1nc(CN1CCC(c3cccc(OCc4ccc(Cl)cc4F)n3)CC1)n2C (single isomer, unassigned) [Compound 263] | < 10 nM |  | ++++ (Emax is >85%) |
| COCCOc1cc(C(=O)O)cc2c1nc(CN1CCC(c3cccc4c3O[C@@](C)(c3ccc(Cl)cn3)O4)CC1)n2C [Compound 30, (S)-2-((4-(2-(5-Chloropyridin-2-yl)-2-methylbenzo[d][1,3]dioxol-4-yl)piperidin-1-yl)methyl)-4-(2-methoxyethoxy)-1-methyl-1H-benzo[d]imidazole-6-carboxylic acid] | < 10 nM |  |  |
| CO[C@H]1C[C@H](Oc2cc(C(=O)O)cc3c2nc(CN2CCC(c4cccc(OCc5ccc(Cl)cc5F)n4)CC2)n3C)C1 [Compound 325, 2-((4-(6-((4-Chloro-2-fluorobenzyl)oxy)pyridin-2-yl)piperidin-1-yl)methyl)-4-((1r,3r)-3-methoxycyclobutoxy)-1-methyl-1H-benzo[d]imidazole-6-carboxylic acid] | 100 to 1000 nM | > 85% |  |
| COc1cc(C(=O)O)cc2c1nc(CN1CCC(c3cccc4c3OC[C@H](c3ccc(Cl)cc3F)O4)CC1)n2C [Compound 258, (S)-2-((4-(2-(4-Chloro-2-fluorophenyl)-2,3-dihydrobenzo[b][1,4]dioxin-5-yl)piperidin-1-yl)methyl)-4-methoxy-1-methyl-1H-benzo[d]imidazole-6-carboxylic acid] | 100 to 1000 nM | > 85% |  |
| [2H]C([2H])(C)Oc1cc(C(=O)O)cc2c1nc(CN1CCC(c3cccc(OC([2H])([2H])c4ccc(C#N)cc4F)n3)CC1)n2C [Compound 285, 2-((4-(6-((4-Cyano-2-fluorophenyl)methoxy-d2)pyridin-2-yl)piperidin-1-yl)methyl)-4-(ethoxy-1,1-d2)-1-methyl-1H-benzo[d]imidazole-6-carboxylic acid] | < 10 nM | > 85% |  |
| COc1cc(Cl)ccc1COc1cccc(C2CCN(Cc3nc4c(OC)cc(C(=O)O)cc4n3C)CC2)n1 [Compound 348, 2-((4-(6-((4-Chloro-2-methoxybenzyl)oxy)pyridin-2-yl)piperidin-1-yl)methyl)-4-methoxy-1-methyl-1H-benzo[d]imidazole-6-carboxylic acid] | < 10 nM | > 85% |  |
